Results reported in PMC10232439, “Identification of photocrosslinking peptide ligands by mRNA display” (Communications Chemistry, 2023).
Where a SMILES comes first, the peptide text is derived from it. Bridges are numbered along the chain shown (N, C = ends). Where no end group is shown, it is not given here. [ ]: non-standard residue; d: D form. The star is where a group is joined. 5FAM = O=C1OC2(c3ccc(O)cc3Oc3cc(O)ccc32)c2ccc(C(=O)*)cc21; Bpa = N[C@@H](Cc1ccc(C(=O)c2ccccc2)cc1)C(=O)O

B1: peptide 3.2B (peptide)
peptide: WSWLCKK(Ac)YNLIH
modifications: thioether (positions not given here); not fully specified (bridges); also: cyclic through C5 sulfur, other ring end not given here, bridge at 5, other end not in the chain
notes: Printed as cyclic-WSWLC(S-)KKYNLIH with the second K underlined (acetylated)

Tests used:
BRD3-BD2 [1] = target: T1, BRD3-BD2 (Homo sapiens, UniProt Q15059); test: Direct fluorescence anisotropy binding assay; details: direct fluorescence anisotropy with FAM-labelled peptide (100 nM final), 12-point 2-fold dilution of BRD3-BD2, 30 min rt, read at 25 °C; mean of at least three replicates ± SD
T1 construct: BRD3-BD2 (306–421, Q15059); Avi tag (biotinylated in vivo; vector pQE80L-Navi); made in house; host or cells: Escherichia coli BL21(DE3)
T1 sequence (Q15059 306-421): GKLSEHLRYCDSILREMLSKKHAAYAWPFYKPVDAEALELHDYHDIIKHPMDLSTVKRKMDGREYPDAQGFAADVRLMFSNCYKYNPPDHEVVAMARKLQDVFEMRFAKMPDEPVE
Procedure: Binding affinities for the two fluorescently tagged peptides were then determined using a direct fluorescence anisotropy assay (Fig. 2d and Supplementary Fig. S6). […] Having established that our peptides were able to bind to BRD3-BD2, we next assessed the crosslinking efficiency of the unlabelled variants. We were pleased to find that both peptides efficiently cross-linked to BRD3-BD2 upon exposure to UV light. After incubation with two equivalents of peptide and irradiation at 365 nm for only 5 min, we observed around 40% protein modification as analysed by sample separation on an SDS-PAGE gel and Coomassie staining. […]
(§1) S7. Direct fluorescence anisotropy assay […]
(§2) After 30 min, fluorescence anisotropy was measured with a CLARIOstar plate reader (BMG Labtech) using excitation at 482 nm and emissions at 530 nm at 25 °C. […] KD values were calculated using GraphPad Prism and a curve fitted using a one site - total fitting model. […]
(§3) Irradiated samples were analysed by SDS-PAGE on 4–20% Bis-Tris gels (mPAGE, Millipore).
(§4) Experiments with Bpa-P1 and Bpa-P2 were visualised by Quick Coomassie staining (Neo Biotech) with gels imaged on a Chemidoc MP Imaging System (Biorad) and quantified by Fiji. Experiments with Bpa-P1-FAM and Bpa-P2-FAM were visualised by in gel fluorescence imaging using a Typhoon FLA 9500 […]
Irradiated samples with BRD3-BD2 were further analysed by LCMS. […]

BRD3-BD2 [2] = target: T1, BRD3-BD2; test: Photocrosslinking of BRD3-BD2, SDS-PAGE/Coomassie densitometry; type: biochemical; details: BRD3-BD2 20 µM, peptide 40 µM (two equivalents), 365 nm for 40 min, 0 °C; SDS-PAGE, Coomassie; mean of triplicate
Procedure: Fig. 3 Photocrosslinking of BRDs with pBpa-containing ligands. a Crosslinking between BRD3-BD2 (20 µM) and cyclic peptides (40 µM) after exposure to UV irradiation (365 nm) for variable amounts of time (0, 5, 10, 20, 40 min). Samples were separated on an SDS-PAGE gel and visualised by Coomassie staining. b Plot of percentage of cross-linked BRD3-BD2 calculated by densitometric analysis of protein bands from (a). Crosslinking efficiencies are represented as the mean of triplicate experiments ±1 standard deviation. c Crosslinking of BRD3-BD2/BRD2-BD2/BRD4-BD2/BRD3-BD1 (2 µM) by cyclic peptides (20 µM) after exposure to UV irradiation for 30 min. Samples were analysed and processed as described in (a, b). […]
as §1, §2, §3, §4

BRD3-BD1 = details: tight binding peptide to its target protein BRD3-BD1; cited from earlier work
[3] = target: T2, second bromodomain of BRD3 (BRD3-BD2), biotinylated (human (from the printed accession), UniProt Q15059 306-421, biotin (biotinylated; cultures induced with IPTG and 100 µM biotin)); test: SPR; peptide 3.2B on BRD3-BD2 cross-linked to Bpa-P1 or Bpa-P2; mean ± standard deviation of the mean; details: both partners purified
T2 construct: BRD3, second bromodomain, residues 306-421 of Q15059; also called wild-type BRD3-BD2; source: E. coli BL21(DE3), purified (HisTrap, Superdex 75)
T2 sequence (Q15059 306-421): as above

Molecule	Kd (BRD3-BD2 [1])	protein modification (cross-linked BRD3-BD2) (BRD3-BD2 [2])	further results
CC(C)C[C@@H]1NC(=O)[C@H](Cc2ccc(O)cc2)NC(=O)[C@H](Cc2ccc(C(=O)c3ccccc3)cc2)NC(=O)[C@H](CC(=O)O)NC(=O)[C@H](CC(=O)O)NC(=O)[C@H](CC(N)=O)NC(=O)[C@H](C(C)C)NC(=O)[C@H](CO)NC(=O)[C@H](CC(N)=O)NC(=O)[C@H](CC(C)C)NC(=O)[C@@H](Cc2ccc(O)cc2)NC(=O)CSC[C@@H](C(=O)NCC(=O)N[C@@H](CCCCNC(=O)c2ccc3c(c2)C(=O)OC32c3ccc(O)cc3Oc3cc(O)ccc32)C(N)=O)NC(=O)[C@H](Cc2ccc(O)cc2)NC(=O)[C@H](C)NC1=O [Bpa-P1-FAM] ({CH2CO}-[dY]LNSVNDD[Bpa]YLAYCGK(5FAM)-NH2; thioether N-14)	29 ± 10 µM		
CC(C)C[C@@H]1NC(=O)[C@H](Cc2ccc(O)cc2)NC(=O)[C@H](Cc2ccc(C(=O)c3ccccc3)cc2)NC(=O)[C@H](CC(=O)O)NC(=O)[C@H](CC(=O)O)NC(=O)[C@H](CC(N)=O)NC(=O)[C@H](C(C)C)NC(=O)[C@H](CO)NC(=O)[C@H](CC(N)=O)NC(=O)[C@H](CC(C)C)NC(=O)[C@@H](Cc2ccc(O)cc2)NC(=O)CSC[C@@H](C(=O)NCC(N)=O)NC(=O)[C@H](Cc2ccc(O)cc2)NC(=O)[C@H](C)NC1=O [Bpa-P1] ({CH2CO}-[dY]LNSVNDD[Bpa]YLAYCG-NH2; thioether N-14)		96%	
CC[C@H](C)[C@@H]1NC(=O)[C@H](Cc2ccccc2)NC(=O)[C@H](Cc2ccc(C(=O)c3ccccc3)cc2)NC(=O)[C@H]([C@@H](C)O)NC(=O)[C@H](CC(=O)O)NC(=O)CNC(=O)[C@H](CCCCN)NC(=O)[C@H](C)NC(=O)[C@H](CC(N)=O)NC(=O)[C@H](CC(C)C)NC(=O)[C@@H](Cc2ccc(O)cc2)NC(=O)CSC[C@@H](C(=O)NCC(=O)N[C@@H](CCCCNC(=O)c2ccc3c(c2)C(=O)OC32c3ccc(O)cc3Oc3cc(O)ccc32)C(N)=O)NC(=O)[C@H](Cc2ccc(O)cc2)NC(=O)[C@H]([C@@H](C)CC)NC1=O [Bpa-P2-FAM] ({CH2CO}-[dY]LNAKGDT[Bpa]FIIYCGK(5FAM)-NH2; thioether N-14)	14 ± 1 µM		
CC[C@H](C)[C@@H]1NC(=O)[C@H](Cc2ccccc2)NC(=O)[C@H](Cc2ccc(C(=O)c3ccccc3)cc2)NC(=O)[C@H]([C@@H](C)O)NC(=O)[C@H](CC(=O)O)NC(=O)CNC(=O)[C@H](CCCCN)NC(=O)[C@H](C)NC(=O)[C@H](CC(N)=O)NC(=O)[C@H](CC(C)C)NC(=O)[C@@H](Cc2ccc(O)cc2)NC(=O)CSC[C@@H](C(=O)NCC(N)=O)NC(=O)[C@H](Cc2ccc(O)cc2)NC(=O)[C@H]([C@@H](C)CC)NC1=O [Bpa-P2] ({CH2CO}-[dY]LNAKGDT[Bpa]FIIYCG-NH2; thioether N-14)		78%	
cyclic-WKTIKGKTWRTKQC(S-) (sidechain bridge or staple) [3.1B, previously identified non-covalent cyclic peptide ligand of the first bromodomain of BRD3, BRD3-BD1]			Kd (BRD3-BD1): 0.00049 µM
B1			binding result [3]: binds
